Experimental data as given in publication PMC9728343, “Characterization of CYP125A13, the First Steroid C-27 Monooxygenase from Streptomyces peucetius ATCC27952” (Journal of Microbiology and Biotechnology, 2020).

Tests used:
CYP125A13 [1] = target: T1, CYP125A13 (Streptomyces peucetius, UniProt Q70AR4); assay: UV-Vis spectral titration (type I shift), tight-binding quadratic fit; also turnover to 27-hydroxycholesterol with PDX/PDR (Km […])
T1 construct: gene cyp0266
T1 sequence (Q70AR4 1-413): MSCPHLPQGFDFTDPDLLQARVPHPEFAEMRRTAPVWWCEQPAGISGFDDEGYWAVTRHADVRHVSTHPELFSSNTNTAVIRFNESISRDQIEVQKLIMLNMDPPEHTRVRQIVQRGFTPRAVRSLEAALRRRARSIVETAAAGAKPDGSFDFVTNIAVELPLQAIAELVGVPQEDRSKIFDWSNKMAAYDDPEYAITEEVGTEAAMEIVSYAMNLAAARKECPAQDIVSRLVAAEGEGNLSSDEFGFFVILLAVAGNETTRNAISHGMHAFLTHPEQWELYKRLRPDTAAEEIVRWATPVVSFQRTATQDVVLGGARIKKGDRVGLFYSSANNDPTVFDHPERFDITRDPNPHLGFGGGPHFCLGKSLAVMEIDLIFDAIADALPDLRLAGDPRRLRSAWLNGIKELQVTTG

CYP125A13 [2] = target: T1, CYP125A13; assay: UV-Vis spectral titration (type I shift), tight-binding quadratic fit; no product formation detected

SMILES | Kd (CYP125A13 [1]) | Kd (CYP125A13 [2])
CC(C)CCC[C@@H](C)[C@H]1CC[C@H]2[C@@H]3CC=C4C[C@@H](O)CC[C@]4(C)[C@H]3CC[C@]12C [cholesterol] | 56.9 ± 11.3 µM | 
CC(C)CCC[C@@H](C)[C@H]1CC[C@H]2[C@@H]3CCC4=CC(=O)CC[C@]4(C)[C@H]3CC[C@]12C [4-cholesten-3-one] |  | 59.2 ± 3.9 µM
